Experimental data from the supplement of paper PMC10307832.

Assays:
Assay in all cases: relative viability (nuclei count vs DMSO), 5 days (fraction); higher = more cells survive
LCLC-97TM1 = test system: LCLC-97TM1
Procedure, shortened: (§1)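 Relative viability is defined as nuclei in treated wells over nuclei in vehicle wells. Duplicate plates were run and medians reported. Lung cancer cell lines in 1536-well plates were dosed by pin tool one day after seeding, with one drug or with a fixed anchor-drug dose plus five library-drug doses (not always all listed) in √10 steps, and nuclei were counted after 5 days.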

201T = test system: 201T
Procedure, shortened: as §1

NCI-H1666 = test system: NCI-H1666
Procedure, shortened: as §1

H3255 = test system: H3255
Procedure, shortened: as §1

LOU-NH91 = test system: LOU-NH91
Procedure, shortened: as §1

NCI-H650 = test system: NCI-H650
Procedure, shortened: as §1

NCI-H2087 = test system: NCI-H2087
Procedure, shortened: as §1

NCI-H2085 = test system: NCI-H2085
Procedure, shortened: as §1

NCI-H1437 = test system: NCI-H1437
Procedure, shortened: as §1

BEN = test system: BEN
Procedure, shortened: as §1

EPLC-272H = test system: EPLC-272H
Procedure, shortened: as §1

EKVX = test system: EKVX
Procedure, shortened: as §1

PC-3 [JPC-3] = test system: PC-3 [JPC-3]
Procedure, shortened: as §1

NCI-H647 = test system: NCI-H647
Procedure, shortened: as §1

NCI-H1975 = test system: NCI-H1975
Procedure, shortened: as §1

LU99A = test system: LU99A
Procedure, shortened: as §1

COR-L 105 = test system: COR-L 105
Procedure, shortened: as §1

HCC-44 = test system: HCC-44
Procedure, shortened: as §1

HCC-827 = test system: HCC-827
Procedure, shortened: as §1

SW 1573 = test system: SW 1573
Procedure, shortened: as §1

Compound: Cc1sc2c(c1C)C(c1ccc(Cl)cc1)=N[C@@H](CC(=O)OC(C)(C)C)c1nnc(C)n1-2 [JQ1] + C[C@]1(O)C[C@@H](c2nc(-c3ccc4ccc(-c5ccccc5)nc4c3)c3c(N)nccn32)C1 [Linsitinib] (partner 1 µM)
- relative viability (LCLC-97TM1; first compound 0.1265 µM): 0.181
- relative viability (LCLC-97TM1; first compound 0.4 µM): 0.212
- relative viability (LCLC-97TM1; first compound 1.265 µM): 0.125
- relative viability (LCLC-97TM1; first compound 4 µM): 0.156
- relative viability (201T; first compound 0.04 µM): 0.996
- relative viability (201T; first compound 0.1265 µM): 1.08
- relative viability (201T; first compound 0.4 µM): 0.924
- relative viability (201T; first compound 1.265 µM): 0.607
- relative viability (201T; first compound 4 µM): 0.511
- relative viability (NCI-H1666; first compound 0.04 µM): 0.811
- relative viability (NCI-H1666; first compound 0.1265 µM): 0.844
- relative viability (NCI-H1666; first compound 0.4 µM): 0.842
- relative viability (NCI-H1666; first compound 1.265 µM): 0.475
- relative viability (NCI-H1666; first compound 4 µM): 0.484
- relative viability (H3255; first compound 0.04 µM): 0.913
- relative viability (H3255; first compound 0.1265 µM): 0.728
- relative viability (H3255; first compound 0.4 µM): 0.881
- relative viability (H3255; first compound 1.265 µM): 0.402
- relative viability (H3255; first compound 4 µM): 0.328
- relative viability (LOU-NH91; first compound 0.04 µM): 0.905
- relative viability (LOU-NH91; first compound 0.1265 µM): 0.777
- relative viability (LOU-NH91; first compound 0.4 µM): 0.579
- relative viability (LOU-NH91; first compound 1.265 µM): 0.474
- relative viability (LOU-NH91; first compound 4 µM): 0.489
- relative viability (NCI-H650; first compound 0.04 µM): 0.913
- relative viability (NCI-H650; first compound 0.1265 µM): 0.507
- relative viability (NCI-H650; first compound 0.4 µM): 0.503
- relative viability (NCI-H650; first compound 1.265 µM): 0.291
- relative viability (NCI-H650; first compound 4 µM): 0.26
- relative viability (NCI-H2087; first compound 0.04 µM): 1.02
- relative viability (NCI-H2087; first compound 0.4 µM): 0.69
- relative viability (NCI-H2087; first compound 1.265 µM): 0.456
- relative viability (NCI-H2087; first compound 4 µM): 0.508
- relative viability (NCI-H2085; first compound 0.04 µM): 0.99
- relative viability (NCI-H2085; first compound 0.1265 µM): 0.652
- relative viability (NCI-H2085; first compound 0.4 µM): 0.642
- relative viability (NCI-H2085; first compound 1.265 µM): 0.687
- relative viability (NCI-H2085; first compound 4 µM): 0.453
- relative viability (NCI-H1437; first compound 0.04 µM): 0.897
- relative viability (NCI-H1437; first compound 0.1265 µM): 0.804
- relative viability (NCI-H1437; first compound 0.4 µM): 0.481
- relative viability (NCI-H1437; first compound 1.265 µM): 0.228
- relative viability (NCI-H1437; first compound 4 µM): 0.18
- relative viability (BEN; first compound 0.04 µM): 0.886
- relative viability (BEN; first compound 0.1265 µM): 0.742
- relative viability (BEN; first compound 0.4 µM): 0.524
- relative viability (BEN; first compound 1.265 µM): 0.347
- relative viability (BEN; first compound 4 µM): 0.224
- relative viability (EPLC-272H; first compound 0.04 µM): 1.14
- relative viability (EPLC-272H; first compound 0.1265 µM): 1.07
- relative viability (EPLC-272H; first compound 0.4 µM): 1.12
- relative viability (EPLC-272H; first compound 1.265 µM): 0.502
- relative viability (EPLC-272H; first compound 4 µM): 0.418
- relative viability (EKVX; first compound 0.04 µM): 0.935
- relative viability (EKVX; first compound 0.1265 µM): 0.813
- relative viability (EKVX; first compound 0.4 µM): 1.01
- relative viability (EKVX; first compound 1.265 µM): 0.72
- relative viability (EKVX; first compound 4 µM): 0.461
- relative viability (PC-3 [JPC-3]; first compound 0.04 µM): 0.942
- relative viability (PC-3 [JPC-3]; first compound 0.1265 µM): 0.998
- relative viability (PC-3 [JPC-3]; first compound 0.4 µM): 1.06
- relative viability (PC-3 [JPC-3]; first compound 1.265 µM): 0.79
- relative viability (PC-3 [JPC-3]; first compound 4 µM): 0.666
- relative viability (NCI-H647; first compound 0.04 µM): 1.12
- relative viability (NCI-H647; first compound 0.1265 µM): 0.754
- relative viability (NCI-H647; first compound 0.4 µM): 0.568
- relative viability (NCI-H647; first compound 1.265 µM): 0.151
- relative viability (NCI-H647; first compound 4 µM): 0.16
- relative viability (NCI-H1975; first compound 0.04 µM): 0.864
- relative viability (NCI-H1975; first compound 0.1265 µM): 0.835
- relative viability (NCI-H1975; first compound 0.4 µM): 0.723
- relative viability (NCI-H1975; first compound 1.265 µM): 0.434
- relative viability (NCI-H1975; first compound 4 µM): 0.379
- relative viability (LU99A; first compound 0.04 µM): 0.573
- relative viability (LU99A; first compound 0.1265 µM): 0.516
- relative viability (LU99A; first compound 0.4 µM): 0.325
- relative viability (LU99A; first compound 1.265 µM): 0.292
- relative viability (LU99A; first compound 4 µM): 0.202
- relative viability (COR-L 105; first compound 0.04 µM): 0.868
- relative viability (COR-L 105; first compound 0.1265 µM): 0.579
- relative viability (COR-L 105; first compound 0.4 µM): 0.349
- relative viability (COR-L 105; first compound 1.265 µM): 0.299
- relative viability (COR-L 105; first compound 4 µM): 0.319
- relative viability (HCC-44; first compound 0.04 µM): 0.704
- relative viability (HCC-44; first compound 0.1265 µM): 0.448
- relative viability (HCC-44; first compound 0.4 µM): 0.32
- relative viability (HCC-44; first compound 1.265 µM): 0.31
- relative viability (HCC-44; first compound 4 µM): 0.283
- relative viability (HCC-827; first compound 0.04 µM): 0.921
- relative viability (HCC-827; first compound 0.4 µM): 1.16
- relative viability (HCC-827; first compound 1.265 µM): 0.958
- relative viability (HCC-827; first compound 4 µM): 0.862
- relative viability (SW 1573; first compound 0.04 µM): 0.697
- relative viability (SW 1573; first compound 0.1265 µM): 0.789
- relative viability (SW 1573; first compound 0.4 µM): 0.711
- relative viability (SW 1573; first compound 1.265 µM): 0.339
- relative viability (SW 1573; first compound 4 µM): 0.323
